Results reported in patent US20120100564A1, “Prediction of Memapsin 2 Cleavage Sites” (priority 2010, published 2012).
Peptide text beside a SMILES is read from it.

Tests used:
human memapsin 2 = molecular target: T1, human memapsin 2 (Homo sapiens, UniProt P56817); assay: Determination of kcat/KM of memapsin 2 substrate peptides (steady-state kinetics and competitive hydrolysis, ESI LC/MS); type: biochemical; details: steady-state kinetics, substrate 5 μM to 150 μM, pH 4.0, 37° C.
T1 construct: The ecto-domain of human memapsin 2 was expressed and purified as described previously (Hong et al., 2000); made in house
T1 sequence (P56817 46-457 limits assumed): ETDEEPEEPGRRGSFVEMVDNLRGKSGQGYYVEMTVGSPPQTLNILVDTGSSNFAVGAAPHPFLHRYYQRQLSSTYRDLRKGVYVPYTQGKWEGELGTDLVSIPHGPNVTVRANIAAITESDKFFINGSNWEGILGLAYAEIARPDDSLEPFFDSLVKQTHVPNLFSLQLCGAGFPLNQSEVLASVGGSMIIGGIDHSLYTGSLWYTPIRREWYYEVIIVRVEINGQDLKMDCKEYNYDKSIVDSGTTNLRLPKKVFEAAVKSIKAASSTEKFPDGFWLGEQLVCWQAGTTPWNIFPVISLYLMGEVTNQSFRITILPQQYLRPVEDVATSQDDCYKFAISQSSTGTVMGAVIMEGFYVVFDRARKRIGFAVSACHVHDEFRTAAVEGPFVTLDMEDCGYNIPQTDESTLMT
Excerpt: Materials. α-cyan-4 hydroxycinnamic acid, D0- and D6-form acetic anhydride , N-hydroxysuccinimide were purchased from Sigma. Peptide (Des-Ser1)-Cerebellin was purchased from Bachem (Bubendorf, Switzerland). All peptides derived from memapsin 2 potential substrates were synthesized by GenScript (Piscataway, N.J.). The ecto-domain of human memapsin 2 was expressed and purified as described previously (Hong et al., 2000). Monoclonal anti-memapsin 2 antibody 3E7 was purchased from Santa Cruz Biotechnology Inc (Santa Cruz, Calif.). Monoclonal anti-APP antibody 1560, MAB348 and polyclonal anti-APP antibody 5352 were purchased from Millipore (Billerica, Mass.). Monoclonal anti-actin antibody was purchased from Abcam (Cambridge, Mass.).
Determination of kcat/KM of different memapsin 2's substrates. […] Initial velocity was determined by ESI LC/MS, in which the product an substrate peak areas were quantitated. The kinetic parameters, kcat and KM were determined from non-linear regression using Grafit software (Surrey, UK). […] Relative kcat/KM of different substrates were determined by comparing the initial hydrolysis rates to that of VGSC beta 2.
Comparison of the kinetics for peptides derived from memapsin 2 protein substrates. […] The relative kcat/KM values of other twelve peptides were determined from their relative pseudo-first-order hydrolytic rates. […]

γ-secretase = assay: CTF99 level in APP-transfected CAD cells with γ-secretase inhibitor (Western blot); type: cell-based, mouse; details: in both APPIDF and APPSW cells
Protocol: Cell culture, transfection and analysis of APP processing products. Mouse neuronal CAD cell line was cultured with DMEM/F12 media (Invitrogen, Carlsbad, Calif.) containing 10% fetal bovine serum and 2% penicillin/streptomycin. Transient trransfections were performed using Fugene HD (Roche, Sweden) according to the manufacture's instruction. 24 hours later after transfection, total cell lysate and cell media were collected and 1% of Protease inhibitor was added (Calbiochem, Gibbstown, N.J.). Aβ level in media was assayed by Aβ [1-40] Human Fluorimetric ELISA Kit (invitrogen, Carlsbad, Calif.). Conditioned media or total cell lysate from the transiently transfected cells were subjected to 10% or 10-20% tricine SDS-PAGE gels (Invitrogen, Carlsbad, Calif.), and transferred to PVDF membranes. The blots were probed with antibodies. The western blot analysis was used for determining the levels of full-length APP, APP's proteolytic products and β-actin.
APPIDF and APPSW cells were also similar in cellular processing characteristics. […] CTF99 is increased in both APPIDF and APPSW cells when γ-secretase inhibitor DAPT slowed its degradation (FIG. 4A, second line, right lanes). As expected, APP ectodomain fragment from α-secretase cleavage, sAPPα, decreased in both APPIDF and APPSW cells as compared to that in APPWT cells (FIG. 4A, fourth panel).

Structure (SMILES) | Km (human memapsin 2) | CTF99 level (γ-secretase)
CC[C@H](C)[C@H](NC(=O)[C@H](CCCCN)NC(=O)CNC(=O)[C@H](Cc1c[nH]cn1)NC(=O)CNC(=O)[C@@H](N)CCCNC(=N)N)C(=O)N[C@@H](Cc1ccc(O)cc1)C(=O)N[C@@H](CC(C)C)C(=O)N[C@@H](CCC(N)=O)C(=O)N[C@H](C(=O)N[C@@H](CC(C)C)C(=O)N[C@@H](CC(C)C)C(=O)O)C(C)C [VGSC-β2] (H-RGHGKIYLQVLL-OH) | 36.4 µM | –
C[C@H](NC(=O)Cc1cc(F)cc(F)c1)C(=O)N[C@H](C(=O)OC(C)(C)C)c1ccccc1 [DAPT] | – | increased
